Results: ChEMBL document CHEMBL1201862, “PubChem BioAssay data set” (2004)
Values joined by “and” are separate entries in the source; they are usually repeats but may differ in a detail not shown here. Equal values may be shown once.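 Test compounds were applied to cells in 96-well plates for 48 hours at 5 doses. At the GI50, growth is halved.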 Active and inactive are the calls of the source. No stated cut-off is given here; in the data, active = GI50 up to about 1.1 µM and inactive = higher.

Assays:
Test in all cases: DTP human tumour cell line panel, 48 h
MDA-N = system: MDA-N
LOX IMVI = system: LOX IMVI
786-0 = system: 786-0
MDA-MB-231 = system: MDA-MB-231
MDA-MB-435 = system: MDA-MB-435
RPMI-8226 = system: RPMI-8226
EKVX = system: EKVX
TK-10 = system: TK-10
SK-MEL-2 = system: SK-MEL-2
Hs-578T = system: Hs-578T
NCI-H23 = system: NCI-H23
HCT-116 = system: HCT-116
SW-620 = system: SW-620
HOP-92 = system: HOP-92
HCC 2998 = system: HCC 2998
A549 = system: A549
HT-29 = system: HT-29
A498 = system: A498
SK-MEL-5 = system: SK-MEL-5
BT-549 = system: BT-549

Row | Structure (SMILES) | GI50 (MDA-N) | GI50 (LOX IMVI) | GI50 (786-0) | GI50 (MDA-MB-231) | GI50 (MDA-MB-435) | GI50 (RPMI-8226) | GI50 (EKVX) | GI50 (TK-10) | GI50 (SK-MEL-2) | GI50 (Hs-578T) | GI50 (NCI-H23) | GI50 (HCT-116) | GI50 (SW-620) | GI50 (HOP-92) | GI50 (HCC 2998) | GI50 (A549) | GI50 (HT-29) | GI50 (A498) | GI50 (SK-MEL-5) | GI50 (BT-549)
1 | O=C1C(=O)N(c2cccc(C(F)(F)F)c2)C(=S)N1c1ccccc1 | 25.5 µM (inactive) | 1.91 µM (inactive) | 33.3 µM (inactive) | 24.4 µM (inactive) | 27.4 µM (inactive) | 36.2 µM (inactive) | 30.9 µM (inactive) | 2.84 µM (inactive) | 19.1 µM (inactive) | 27.9 µM (inactive) | 25.5 µM (inactive) | 31.7 µM (inactive) | 36.2 µM (inactive) | 19.1 µM (inactive) | 42 µM (inactive) | 33.3 µM (inactive) | 36.5 µM (inactive) | 21.9 µM (inactive) | 17.9 µM (inactive) | 
2 | CC(=O)SCCC(NC(=S)Nc1ccccc1)P(=O)(Oc1ccccc1)Oc1ccccc1 (stereo not drawn) | > 100 µM (inactive) | > 100 µM (inactive) | > 100 µM (inactive) | > 100 µM (inactive) | > 100 µM (inactive) |  | > 100 µM (inactive) | 60.8 µM (inactive) |  | > 100 µM (inactive) | > 100 µM (inactive) | > 100 µM (inactive) | > 100 µM (inactive) | > 100 µM (inactive) | > 100 µM (inactive) | > 100 µM (inactive) | > 100 µM (inactive) |  |  | 
3 | O=C(c1ccccc1)N1CCC(CC2(c3cc4ccccc4[nH]3)OCCO2)CC1 | 26.2 µM (inactive) | 17.2 µM (inactive) | 17.8 µM (inactive) | 64.1 µM (inactive) | 20.6 µM (inactive) | 2.52 µM (inactive) | 66.2 µM (inactive) | 28.3 µM (inactive) | 30.7 µM (inactive) |  | 42.3 µM (inactive) | 29.3 µM (inactive) | 19.5 µM (inactive) | 21.2 µM (inactive) |  | 68.5 µM (inactive) | 26.5 µM (inactive) | 21.4 µM (inactive) | 19.7 µM (inactive) | 52.5 µM (inactive)
4 | CC(=O)C(=[N+]=[N-])C(=O)N(C)CCC#N | > 10 µM (inactive) | > 10 µM (inactive) | > 10 µM (inactive) | > 10 µM (inactive) | > 10 µM (inactive) | > 10 µM (inactive) | > 10 µM (inactive) | > 10 µM (inactive) | > 10 µM (inactive) |  | > 10 µM (inactive) | > 10 µM (inactive) | > 10 µM (inactive) | > 10 µM (inactive) |  | > 10 µM (inactive) | > 10 µM (inactive) | > 10 µM (inactive) |  | > 10 µM (inactive)
5 | COC(=O)C1=COC(C)C2CN3CCc4c([nH]c5cc(OC)c(OC)cc45)C3CC12 (stereo not drawn) | 55.7 µM (inactive) | > 100 µM (inactive) and 55.5 µM (inactive) | > 100 µM (inactive) and 73.8 µM (inactive) | > 100 µM (inactive) | > 100 µM (inactive) and 72.6 µM (inactive) | 27.9 µM (inactive) | 54.6 µM (inactive) and 72.8 µM (inactive) | > 100 µM (inactive) and 87.1 µM (inactive) | > 100 µM (inactive) | > 100 µM (inactive) and 54 µM (inactive) | 70.5 µM (inactive) and 37.6 µM (inactive) |  |  | 22 µM (inactive) and 40.8 µM (inactive) | 58.2 µM (inactive) and 36.1 µM (inactive) | 96.8 µM (inactive) and 49.5 µM (inactive) | 34.2 µM (inactive) and 34.7 µM (inactive) | > 100 µM (inactive) and 87.7 µM (inactive) | 50.4 µM (inactive) and 36.8 µM (inactive) | 
6 | O=C(/C=C\c1ccc(Cl)c(Cl)c1)c1ccc(Cl)cc1Cl |  | 5.74 µM (inactive) | 17.4 µM (inactive) |  |  | 3.18 µM (inactive) | 23.4 µM (inactive) | > 10 µM (inactive) | 19.7 µM (inactive) |  | 0.65 µM (active) | 9.14 µM (inactive) | 2.69 µM (inactive) | > 10 µM (inactive) | 16.7 µM (inactive) | 22.6 µM (inactive) | 16.8 µM (inactive) | > 10 µM (inactive) | 14.9 µM (inactive) | 
7 | CN1CCN2c3ccccc3CC(C#N)(C#N)C2C1 (stereo not drawn) |  | > 100 µM (inactive) | > 100 µM (inactive) |  |  | > 100 µM (inactive) | > 100 µM (inactive) | > 100 µM (inactive) | > 100 µM (inactive) |  | > 100 µM (inactive) | > 100 µM (inactive) | > 100 µM (inactive) | > 100 µM (inactive) | > 100 µM (inactive) | > 100 µM (inactive) | > 100 µM (inactive) | > 100 µM (inactive) | > 100 µM (inactive) | 
8 | SCc1ccc(CS)s1 | > 100 µM (inactive) | > 100 µM (inactive) | > 100 µM (inactive) | > 100 µM (inactive) | > 100 µM (inactive) |  | > 100 µM (inactive) | > 100 µM (inactive) |  |  | > 100 µM (inactive) | > 100 µM (inactive) | > 100 µM (inactive) | 15.3 µM (inactive) | > 100 µM (inactive) | > 100 µM (inactive) | > 100 µM (inactive) |  | > 100 µM (inactive) | > 100 µM (inactive)
9 | CC1(C)CC[C@]2(C(=O)O)CC[C@]3(C)C(=CC[C@@H]4[C@@]5(C)C[C@H](O)[C@H](O)[C@@](C)(CO)C5=CC[C@]43C)[C@@H]2C1 | > 100 µM (inactive) | 71.3 µM (inactive) | 55.2 µM (inactive) | > 100 µM (inactive) | > 100 µM (inactive) | 50.5 µM (inactive) | 53.2 µM (inactive) | > 100 µM (inactive) | > 100 µM (inactive) | 37.7 µM (inactive) | 46.8 µM (inactive) | 32.5 µM (inactive) | > 100 µM (inactive) | > 100 µM (inactive) | 35.4 µM (inactive) | 28.8 µM (inactive) | 55.5 µM (inactive) | > 100 µM (inactive) | > 100 µM (inactive) | 
10 | CCOC1=NC(C(F)(F)F)(C(F)(F)F)N=C(N2CCCCC2)O1 |  | > 100 µM (inactive) | > 100 µM (inactive) | > 100 µM (inactive) | > 100 µM (inactive) | > 100 µM (inactive) | > 100 µM (inactive) | > 100 µM (inactive) | > 100 µM (inactive) | > 100 µM (inactive) | > 100 µM (inactive) | > 100 µM (inactive) | > 100 µM (inactive) | > 100 µM (inactive) |  | > 100 µM (inactive) | > 100 µM (inactive) | > 100 µM (inactive) | > 100 µM (inactive) | 
11 | O=C(O)COc1ccc2c3c1C(=O)CCC3CO2 (stereo not drawn) |  | > 100 µM (inactive) | > 100 µM (inactive) |  |  | > 100 µM (inactive) | > 100 µM (inactive) | > 100 µM (inactive) | > 100 µM (inactive) |  | > 100 µM (inactive) | > 100 µM (inactive) | > 100 µM (inactive) | > 100 µM (inactive) | > 100 µM (inactive) | > 100 µM (inactive) | > 100 µM (inactive) | > 100 µM (inactive) | > 100 µM (inactive) | 
12 | CC(C)(C)N1CC2(CCCCC2)C1=O |  | > 100 µM (inactive) | > 100 µM (inactive) |  |  | > 100 µM (inactive) | > 100 µM (inactive) | > 100 µM (inactive) | > 100 µM (inactive) |  | > 100 µM (inactive) | > 100 µM (inactive) | > 100 µM (inactive) | > 100 µM (inactive) | > 100 µM (inactive) | > 100 µM (inactive) | > 100 µM (inactive) | > 100 µM (inactive) | > 100 µM (inactive) | 
13 | CSC12c3cc(C)n(-c4ccc([N+](=O)[O-])cc4)c3CC(C)(C)CN1C(=O)C2Oc1ccccc1 (stereo not drawn) | > 100 µM (inactive) | > 100 µM (inactive) | > 100 µM (inactive) | 96.6 µM (inactive) | 19.8 µM (inactive) | 31.9 µM (inactive) | 36 µM (inactive) |  | > 100 µM (inactive) |  | 74.1 µM (inactive) | 54.2 µM (inactive) | > 100 µM (inactive) | 24.2 µM (inactive) | 35.5 µM (inactive) | 46.1 µM (inactive) |  | 10.6 µM (inactive) | > 100 µM (inactive) | > 100 µM (inactive)
14 | Cc1c(Cl)cccc1NC(=O)c1cccc([N+](=O)[O-])c1O |  | 5.78 µM (inactive) | 20.5 µM (inactive) |  |  | 3.24 µM (inactive) | 16 µM (inactive) | 41.8 µM (inactive) | 10.7 µM (inactive) |  | 6.87 µM (inactive) | 13.7 µM (inactive) | 28.2 µM (inactive) | 2.37 µM (inactive) | 7.18 µM (inactive) | 11.4 µM (inactive) | 12.9 µM (inactive) | 14.2 µM (inactive) | 3.26 µM (inactive) | 
15 | CC(C)=C1CCC(CN2CCCC2)C1=O (stereo not drawn) |  | > 100 µM (inactive) | 16.9 µM (inactive) |  |  | 11.8 µM (inactive) | > 100 µM (inactive) | 27.5 µM (inactive) | 29.6 µM (inactive) |  | > 100 µM (inactive) | 17.7 µM (inactive) | 22.1 µM (inactive) | 24.6 µM (inactive) | 20.3 µM (inactive) | > 100 µM (inactive) | 22.8 µM (inactive) | > 100 µM (inactive) | > 100 µM (inactive) | 
16 | OC[C@@H](O)[C@H](O)[C@H](O)[C@@H](O)C1SCCCS1 | > 100 µM (inactive) |  | > 100 µM (inactive) | > 100 µM (inactive) | > 100 µM (inactive) | > 100 µM (inactive) | > 100 µM (inactive) | > 100 µM (inactive) | > 100 µM (inactive) |  | > 100 µM (inactive) | > 100 µM (inactive) | > 100 µM (inactive) | 17.2 µM (inactive) | > 100 µM (inactive) | > 100 µM (inactive) | > 100 µM (inactive) | > 100 µM (inactive) | > 100 µM (inactive) | > 100 µM (inactive)
